Data published in US20160157490A1, “COMPOSITIONS COMPRISING A GERMINANT AND AN ANTIMICROBIAL AGENT” (priority 2010, published 2016).

Tested on: C. difficile spores
Assay: Germination efficacy testing of germinant solution with antimicrobial and preservative (neutraliser, heat shock or ice)
Assay type: cell-based
Conditions: for effect on the germinant solution / germination: antimicrobial added to germinant solution; for initiation of germination / sporicidal activity: without amino acids and taurocholate
Protocol: The solution was heated and mixed thoroughly to dissolve all of the components before filtration through a pore size of 0.2 μm for sterilization. (This solution is double the working strength as it is diluted 1:2 during the experiment).
The pH was adjusted to 7 and was autoclaved to sterilize.
For the control, 100 μL of sterilized distilled water was mixed with 100 μL of C. difficile spore suspension. Spore suspensions were also incubated with solutions containing benzalkonium chloride and Tris buffer (without amino acids or taurocholate), benzyl alcohol with Tris buffer (without amino acids and taurocholate) and a solution containing the five amino acids and taurocholate (with no antimicrobials). […] (miniMACS Anaerobic Workstation (Don Whitley Scientific Ltd)).

**Q.** With `O=C(O)CN(CCN(CC(=O)O)CC(=O)O)CC(=O)O` [EDTA] as the compound, how does the “effect on the germinant solution / germination” value read?
**A.** inhibit the germinant solution

**Q.** How did the “effect on the germinant solution / germination” value turn out when `OCc1ccccc1` [benzyl alcohol] was run?
**A.** do not affect germination

**Q.** And the initiation of germination?
**A.** did not initiate germination

**Q.** And the sporicidal activity?
**A.** not sporicidal

**Q.** For `N=C(NCCCCCCNC(=N)NC(=N)Nc1ccc(Cl)cc1)NC(=N)Nc1ccc(Cl)cc1.O=C(O)[C@H](O)[C@@H](O)[C@H](O)[C@H](O)CO.O=C(O)[C@H](O)[C@@H](O)[C@H](O)[C@H](O)CO` [cholorohexidine], which “effect on the germinant solution / germination” value is on record?
**A.** inhibit the germinant solution

**Q.** How did the “effect on the germinant solution / germination” value turn out when benzalkonium chloride was run?
**A.** do not affect germination

**Q.** What about the initiation of germination of the same compound?
**A.** did not initiate germination

**Q.** And the sporicidal activity?
**A.** not sporicidal
